Reference: patent US20110173718A1, “HERBICIDE TOLERANT PLANTS” (SYNGENTA CROP PROTECTION, INC., priority 2008, published 2011)

Experiments:
weeds [1] = assay: Glasshouse weed control, HST inhibitors alone and with A22, pre-emergence; assay type: in vivo; conditions: 336 h, 14 DAT; for pest or weed control at 15.625 g/ha: HST inhibitor rate 15.625 g/ha; for pest or weed control at 62.5 g/ha: HST inhibitor rate 62.5 g/ha; for pest or weed control at 250 g/ha: HST inhibitor rate 250 g/ha
Method: (§1) In a further test, the results of which are depicted in tables 18 and 19, weed seeds are planted out in trays containing 50% peat/50% John Innes no. 3 soil and grown in the glass house at 24-27 C day; 18-21 C night and approximately a 15 h photoperiod. Humidity is ˜65% and light levels at bench level are up to 2 mmol/m^2. Again all spray chemicals are dissolved in 0.2% X77 surfactant and sprayed from a boom on a track sprayer moving at 2 mph with the nozzle set about 2 inches above the plant tops. The spray volume is […]. Sprays are carried out both pre-emergence and post-emergence over small plants at about 7-12 d post-emergence. Plants are assessed at 14 DAT with herbicidal damage scored on a scale from 0 to 100%. The HPPD inhibiting herbicide is compound A22 (4-hydroxy-3-[[2-(2-methoxyethoxy)methyl]-6-(trifluoromethyl)-3-pyridinylicarbonyl]-bicyclo[3.2.1]oct-3-en-2-one) which is sprayed at 2 g/ha both alone and in mixture with various HST herbicides. Results and spray rates are depicted in Tables 18 and 19. Again the Colby formula has been used to calculate synergy scores observed following treatment with the mixture based on the results obtained with the single components alone. Positive synergy is observed between the HPPD herbicide and a wide variety of HST inhibitor herbicides applied both pre and postemergence across a variety of weeds.

Arabidopsis HST = molecular target: T1, Arabidopsis HST (Arabidopsis thaliana, UniProt Q1ACB3); assay: HST total extraction (non TLC) assay, recombinant Arabidopsis HST from insect cells; assay type: biochemical
T1 construct: GST (factor Xa cleavage site) (N); made in house; host or cells: Sf9 insect cells (baculovirus, pAcG3X), membrane fraction
T1 sequence (Q1ACB3 70-386): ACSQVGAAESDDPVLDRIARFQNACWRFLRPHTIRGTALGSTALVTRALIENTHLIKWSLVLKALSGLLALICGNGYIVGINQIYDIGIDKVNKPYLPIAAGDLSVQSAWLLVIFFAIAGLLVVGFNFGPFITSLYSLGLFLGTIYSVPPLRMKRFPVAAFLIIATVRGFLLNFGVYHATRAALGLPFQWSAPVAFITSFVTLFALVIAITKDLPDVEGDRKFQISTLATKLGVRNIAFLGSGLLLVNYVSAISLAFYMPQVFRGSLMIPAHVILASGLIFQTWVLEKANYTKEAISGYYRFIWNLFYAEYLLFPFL

weeds [2] = assay: Glasshouse weed control, HST inhibitors alone and with A22, post-emergence; assay type: in vivo; conditions: 336 h, 14 DAT, single replicate, read-out: % control score, Obs; for pest or weed control at 15.625 g/ha: 15.625 g/ha alone; for pest or weed control at 62.5 g/ha: 62.5 g/ha alone; for pest or weed control at 250 g/ha: 250 g/ha alone
Method: as §1

[3] = BRAPL, read-out: BRAPL Obs, % control score
[4] = PANMI, read-out: PANMI Obs, % control score
[5] = SIDSP, read-out: SIDSP Obs, % control score
[6] = Digitaria sanguinalis, DIGSA, read-out: DIGSA Obs, % control score
[7] = Echinochloa crus-galli, ECHCG, read-out: ECHCG Obs, % control score
[8] = Setaria faberi, SETFA, read-out: SETFA Obs, % control score

Row | SMILES | pest or weed control at 15.625 g/ha (weeds [1]; [3]) [%] | pest or weed control at 62.5 g/ha (weeds [1]; [3]) [%] | pest or weed control at 250 g/ha (weeds [1]; [3]) [%] | pest or weed control at 15.625 g/ha (weeds [1]; [4]) [%] | pest or weed control at 62.5 g/ha (weeds [1]; [4]) [%] | pest or weed control at 250 g/ha (weeds [1]; [4]) [%] | pest or weed control at 15.625 g/ha (weeds [1]; [5]) [%] | pest or weed control at 62.5 g/ha (weeds [1]; [5]) [%] | pest or weed control at 250 g/ha (weeds [1]; [5]) [%] | pest or weed control at 15.625 g/ha (weeds [1]; [6]) [%] | pest or weed control at 62.5 g/ha (weeds [1]; [6]) [%] | pest or weed control at 250 g/ha (weeds [1]; [6]) [%] | pest or weed control at 15.625 g/ha (weeds [1]; [7]) [%] | pest or weed control at 62.5 g/ha (weeds [1]; [7]) [%] | pest or weed control at 250 g/ha (weeds [1]; [7]) [%] | pest or weed control at 15.625 g/ha (weeds [1]; [8]) [%] | pest or weed control at 62.5 g/ha (weeds [1]; [8]) [%] | pest or weed control at 250 g/ha (weeds [1]; [8]) [%] | Estimated IC50 (ppm) (Arabidopsis HST) | pest or weed control at 15.625 g/ha (weeds [2]; BRAPL) [%] | also measured
1 | Cn1c(=O)c(-c2c(Cl)cccc2C(F)(F)F)c(O)c2nccnc21 [Compound 2.16] | 0 | 5 | 50 | 0 | 0 | 40 | 0 | 0 | 0 | 0 | 0 | 0 | 0 | 15 | 60 | 0 | 10 | 45 | 78 | 10 | pest or weed control at 62.5 g/ha (weeds [2]; BRAPL): 30%; pest or weed control at 250 g/ha (weeds [2]; BRAPL): 70%; pest or weed control at 15.625 g/ha (weeds [2]; PANMI): 5%; pest or weed control at 62.5 g/ha (weeds [2]; PANMI): 40%; pest or weed control at 250 g/ha (weeds [2]; PANMI): 70%; pest or weed control at 15.625 g/ha (weeds [2]; SIDSP): 5%; pest or weed control at 62.5 g/ha (weeds [2]; SIDSP): 40%; pest or weed control at 250 g/ha (weeds [2]; SIDSP): 50%; pest or weed control at 15.625 g/ha (weeds [2]; Digitaria sanguinalis, DIGSA): 0%; pest or weed control at 62.5 g/ha (weeds [2]; Digitaria sanguinalis, DIGSA): 2%; pest or weed control at 250 g/ha (weeds [2]; Digitaria sanguinalis, DIGSA): 40%; pest or weed control at 15.625 g/ha (weeds [2]; Echinochloa crus-galli, ECHCG): 2%; pest or weed control at 62.5 g/ha (weeds [2]; Echinochloa crus-galli, ECHCG): 15%; pest or weed control at 250 g/ha (weeds [2]; Echinochloa crus-galli, ECHCG): 50%; pest or weed control at 15.625 g/ha (weeds [2]; Setaria faberi, SETFA): 1%; pest or weed control at 62.5 g/ha (weeds [2]; Setaria faberi, SETFA): 30%; pest or weed control at 250 g/ha (weeds [2]; Setaria faberi, SETFA): 65%
2 | O=S1(=O)C(c2ccc(Br)cc2C(F)(F)F)=C(O)c2nccnc2N1CC(F)F [Compound 3.5] | 0 | 0 | 0 | 0 | 0 | 0 | 0 | 0 | 2 | 0 | 0 | 0 | 0 | 0 | 0 | 0 | 0 | 0 | 42 | 2 | pest or weed control at 62.5 g/ha (weeds [2]; BRAPL): 30%; pest or weed control at 250 g/ha (weeds [2]; BRAPL): 65%; pest or weed control at 15.625 g/ha (weeds [2]; PANMI): 5%; pest or weed control at 62.5 g/ha (weeds [2]; PANMI): 15%; pest or weed control at 250 g/ha (weeds [2]; PANMI): 70%; pest or weed control at 15.625 g/ha (weeds [2]; SIDSP): 2%; pest or weed control at 62.5 g/ha (weeds [2]; SIDSP): 10%; pest or weed control at 250 g/ha (weeds [2]; SIDSP): 10%; pest or weed control at 15.625 g/ha (weeds [2]; Digitaria sanguinalis, DIGSA): 0%; pest or weed control at 62.5 g/ha (weeds [2]; Digitaria sanguinalis, DIGSA): 0%; pest or weed control at 250 g/ha (weeds [2]; Digitaria sanguinalis, DIGSA): 5%; pest or weed control at 15.625 g/ha (weeds [2]; Echinochloa crus-galli, ECHCG): 5%; pest or weed control at 62.5 g/ha (weeds [2]; Echinochloa crus-galli, ECHCG): 15%; pest or weed control at 250 g/ha (weeds [2]; Echinochloa crus-galli, ECHCG): 30%; pest or weed control at 15.625 g/ha (weeds [2]; Setaria faberi, SETFA): 2%; pest or weed control at 62.5 g/ha (weeds [2]; Setaria faberi, SETFA): 10%; pest or weed control at 250 g/ha (weeds [2]; Setaria faberi, SETFA): 40%
